Tests used:
Erk = assay: PDGF-dependent activation of Erk in NIH 3T3 cells expressing mutant receptors (anti-phospho-Erk western blot); assay type: cell-based, mouse; conditions: 50 ng/ml PDGF-AA, 5 minutes
Method: Cells were stimulated as described in Example 2 and 20 μg of total cell lysate was subjected to western blotting analysis using anti-phospho-Erk or anti-Ras GTP-activating protein antibody as an internal control for the amount of protein. The phospho-extracellular signal related kinase (Erk) rabbit polyclonal antibody was purchased from New England Biolabs (Beverly, Mass.) and used at a dilution of 1:1000.

human αPDGFR = assay: Tyrosine phosphorylation of the introduced mutant αPDGFR (292 immunoprecipitation from NIH 3T3 cells); assay type: cell-based, mouse; conditions: 292 antibody IP, RIPA lysis; 50 ng/ml PDGF-AA, 5 minutes
Text: To characterize the kinase activity of the point mutants, these were immunoprecipitated using the 292 monoclonal antibody, which selectively recognizes an extracellular epitope of the introduced receptor and recognizes all of the mutants used in this study. While PDGF-stimulation is expected to dimerize mutant and wild type receptors, lysing cells in RIPA buffer breaks receptor dimers. Kelly, J. D. et al. (1991) J. Biol. Chem. 266:8987. Consequently, 292 immunoprecipitates are not expected to contain co-immunoprecipitating WT receptor. NIH 3T3 cells expressing the empty vector or receptor mutants were left resting, or stimulated with 50 ng/ml of PDGF-AA for 5 minutes, the cells were lysed in RIPA buffer and the resulting samples were subjected to anti-phosphotyrosine and anti-αPDGFR western blot analysis. In this series of experiments, we included the previously described Fα cell line, which is an NIH 3T3-like cell line that express the introduced human αPDGFR. Andrews, A. et al (1999) Invest. Ophthalmol. Vis. Sci. 40:2683. This cell line was included as a positive control, since the WT receptor in NIH 3T3 cells is mouse, and not recognized by the 292 antibody. As expected, the αPDGFR was immunoprecipitated from the Fα cells, but not the NIH 3T3 cells expressing the empty vector, and PDGF stimulation increased the phosphotyrosine content of the receptor (FIG. 3A). […]

GST-PLCγ = assay: In vitro kinase assay of immunoprecipitated mutant αPDGFRs with exogenous substrate; assay type: biochemical; conditions: 292 immunoprecipitates, [32P]-γ ATP, 30° C., 5 min
Method: Mutant αPDGFRs were selectively immunoprecipitated with the 292 antibody, and samples representing 2×10^5 cells from 292 antibodies were subjected to an in vitro kinase assay. Immunoprecipitates were preincubated with 2 μg of GST protein for 10 min at 0° C., then 2 μg of Glutathione S-transferase fusion phospholipase C-gamma (GST-PLCγ, an exogenous substrate, 10 μCi of γ-[^32P] ATP (DuPont NEN Research Products, Boston, Mass.), and universal kinase buffer (UKB; 20 mM Pipes, pH 7.0, 10 mM MnCl2, 20 μg/ml aprotinin) were added. The samples were incubated at 30° C. for 5 min. The proteins were separated by 7.5% sodium dodecyl sulfate-polyacrylamide gel electrophoresis (SDS-PAGE), the gel was dried, and the radiolabeled protein was detected by autoradiography.

FCX^2, Fα and Fβ cells = assay: Collagen gel contraction assay of cells with no PDGFRs, αPDGFR or βPDGFR; assay type: cell-based, mouse; conditions: 1 ng/ml TGFβ1; 24, 48, 72 hours
Method: The contraction assay was based on a previously described reference, Skuta, G. et al. (1999) J. Biol. Chem. 274:30163, with the following modifications. Fα cells were suspended in 1.5 mg/ml of neutralized collagen I (Cohesion vitrogen 100, Palo Alto, Calif.) at a density of 10^6 cells/ml, and were transferred into the 24-well plate (Falcon, Franklyn Lakes, N.J.) that had been preincubated with phosphate-buffer saline (PBS) with 5 mg/ml of bovine serum albumin (BSA) overnight. The gel was solidified by incubating at 37° C. for 90 minutes, and then the well was flooded with DMEM+5 mg/ml of BSA supplemented with an amount of vitreous such that the final concentration of vitreous in the culture medium was 1, 5 or 20%. […] The media was replaced every 24 hours and the gel diameter was measured after 48 hours. The extent of contraction was calculated by subtracting the diameter of the well at 48 hours from the initial diameter (15 mm). […]
The experiments described in Example 9 (FIG. 7B) were repeated with cells that express the βPDGFR (Fβ) instead of the αPDGFR, or no PDGFRs (FCX^2). Contraction was scored at the 48 hours time point. […]
To more directly test whether TGFβ could moderate contraction of fibroblasts via the αPDGFR, the response of the three cell lines to purified TGFβ was examined. […] The gel diameter was measured after 24, 48, or 72 hours, and the media was replaced every day.

αPDGFR = target: T1, αPDGFR (Homo sapiens, UniProt P16234); assay: Tyrosine phosphorylation of the αPDGFR in TGFβ- or PDGF-treated F cells; assay type: cell-based; conditions: Fα cells; 50 ng/ml PDGF-BB 5 minutes or 1 ng/ml TGFβ1 5 minutes to 8 hours
T1 construct: expressed in transfected cells; host or cells: F cells (SV-40 immortalized mouse embryo fibroblasts lacking both PDGFRs), giving Fα
Method: To show the effect of TGFβ on αPDGFR, the tyrosine phosphorylation state of the αPDGFR was assayed in TGFβ-treated cells. The F cells with or without PDGFR were grown to 80% confluent and then starved with DMEM containing 1% FBS for 20 hours. Cells were exposed at 37° C. for 5 minutes to either 50 ng/ml of PDGF-BB; with 1 ng/ml of TGFβ1 for 5 minutes, 1 hour, 2 hours, 4 hours, 6 hours or 8 hours; or were left unstimulated. After treatment the cells were washed twice with H/S (20 mM Hepes, pH 7.4, 150 mM NaCl) and then lysed in EB (10 mM Tris-HCl, pH 7.4, 5 mM EDTA, 50 mM NaCl, 50 mM NaF, 1% Triton-X 100, 0.1% BSA, 20 μg/ml aprotinin, 2 mM Na3VO4, 1 mM phenylmethylsulfonyl fluoride; PMSF). Lysates were centrifuged for 15 minutes at 13,000×g, the pellet was discarded and the soluble fraction was used as the total cell lysate. The protein concentration was measured using protein assay kit (Pierce, Rockfield, Ill.) following the manufacture's instructions.
Receptors were immunoprecipitated from the soluble fraction with the 27P antibody (described above). Immune complex was bound to formalin-fixed membranes of Staphylococcus aureus, spun through an EB sucrose gradient, and washed twice with EB, then with PAN (10 mM Pipes, pH 7.0, 100 mM NaCl, 1% aprotinin)+0.5% Nonidet P-40 (NP-40), and finally with PAN. The samples were resuspended in PAN before using for kinase assay or western blotting. […]

βPDGFR = target: T2, βPDGFR (Homo sapiens, UniProt P09619); assay: Tyrosine phosphorylation of the βPDGFR in TGFβ- or PDGF-treated F cells; assay type: cell-based; conditions: Fβ cells; 1 ng/ml TGFβ1
T2 construct: expressed in transfected cells; host or cells: F cells (mouse embryo fibroblasts lacking both PDGFRs), giving Fβ

NIH 3T3 cells = assay: [3H]-thymidine incorporation (entry into S phase) in NIH 3T3 cells expressing mutant receptors; assay type: cell-based, mouse; conditions: 10% FBS, 22 hours
Method: NIH 3T3 cells expressing either empty vector (EMP) or one of the αPDGFR mutants were trypsinized, resuspended in DMEM with 10% FBS, and plated at a density of 5×10^5 cells/well in 24-well tissue culture plates and cultured overnight. The cells were rinsed twice with phosphate buffered saline (PBS), and serum starved by incubation in 0.5 ml of DMEM with 0.1% FBS and 0.4 mg/ml of bovine serum albumin (BSA; Sigma) for 48 hours. The cells were then exposed to 50 ng/ml of PDGF-AA, 10% Fetal bovine serum (FBS) (v/v), or buffer for 22 hours. The cells were then pulsed for 4 hours in DMEM with 10% FBS containing 0.8 μCi/ml of [^3H]-thymidine (DuPont NEN Research Products). Finally, the cells were washed twice with PBS, and once with 5% trichloro acetic acid, and lysed in 250 μl of 0.25 N NaOH. The lysates were transferred into scintillation tubes containing 50 μl of 6 N HCl, and then 3 ml of scintillation fluid (ICN) was added. The incorporated radioactivity of [^3H]-thymidine uptake was quantitated in a scintillation counter (Packard, Meriden Conn.). The data were expressed as fold induction, which was calculated by dividing stimulated samples by the buffer control. Each condition was assayed triplicate, and the mean±standard deviation (SD) was obtained.

T1 sequence (P16234 24-1089): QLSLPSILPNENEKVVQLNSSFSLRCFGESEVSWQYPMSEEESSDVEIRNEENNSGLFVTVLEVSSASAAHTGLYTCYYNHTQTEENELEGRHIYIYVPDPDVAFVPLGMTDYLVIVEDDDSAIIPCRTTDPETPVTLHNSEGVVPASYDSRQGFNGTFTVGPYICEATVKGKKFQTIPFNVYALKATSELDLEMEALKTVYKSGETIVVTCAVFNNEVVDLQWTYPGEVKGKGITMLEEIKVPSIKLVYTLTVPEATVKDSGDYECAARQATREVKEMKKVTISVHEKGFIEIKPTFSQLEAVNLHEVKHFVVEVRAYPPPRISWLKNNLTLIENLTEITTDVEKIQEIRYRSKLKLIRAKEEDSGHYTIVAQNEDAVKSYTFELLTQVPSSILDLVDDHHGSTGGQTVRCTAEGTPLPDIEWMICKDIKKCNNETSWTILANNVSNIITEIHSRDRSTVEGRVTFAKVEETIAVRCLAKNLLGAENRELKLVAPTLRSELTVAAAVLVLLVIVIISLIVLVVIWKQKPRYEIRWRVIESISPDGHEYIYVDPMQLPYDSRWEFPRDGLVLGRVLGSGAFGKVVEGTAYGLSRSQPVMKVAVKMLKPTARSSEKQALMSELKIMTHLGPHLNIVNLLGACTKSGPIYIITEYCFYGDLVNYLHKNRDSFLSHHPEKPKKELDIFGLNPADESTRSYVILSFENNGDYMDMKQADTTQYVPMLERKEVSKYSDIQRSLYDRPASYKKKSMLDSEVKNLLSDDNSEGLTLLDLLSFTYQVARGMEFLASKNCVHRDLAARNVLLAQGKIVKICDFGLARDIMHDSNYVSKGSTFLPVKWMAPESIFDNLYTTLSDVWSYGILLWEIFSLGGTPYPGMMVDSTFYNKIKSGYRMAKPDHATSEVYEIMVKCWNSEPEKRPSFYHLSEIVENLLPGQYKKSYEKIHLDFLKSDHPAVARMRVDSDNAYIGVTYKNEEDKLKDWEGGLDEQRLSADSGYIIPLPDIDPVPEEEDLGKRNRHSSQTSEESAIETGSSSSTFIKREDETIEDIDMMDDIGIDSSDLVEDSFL
T2 sequence (P09619 33-1106): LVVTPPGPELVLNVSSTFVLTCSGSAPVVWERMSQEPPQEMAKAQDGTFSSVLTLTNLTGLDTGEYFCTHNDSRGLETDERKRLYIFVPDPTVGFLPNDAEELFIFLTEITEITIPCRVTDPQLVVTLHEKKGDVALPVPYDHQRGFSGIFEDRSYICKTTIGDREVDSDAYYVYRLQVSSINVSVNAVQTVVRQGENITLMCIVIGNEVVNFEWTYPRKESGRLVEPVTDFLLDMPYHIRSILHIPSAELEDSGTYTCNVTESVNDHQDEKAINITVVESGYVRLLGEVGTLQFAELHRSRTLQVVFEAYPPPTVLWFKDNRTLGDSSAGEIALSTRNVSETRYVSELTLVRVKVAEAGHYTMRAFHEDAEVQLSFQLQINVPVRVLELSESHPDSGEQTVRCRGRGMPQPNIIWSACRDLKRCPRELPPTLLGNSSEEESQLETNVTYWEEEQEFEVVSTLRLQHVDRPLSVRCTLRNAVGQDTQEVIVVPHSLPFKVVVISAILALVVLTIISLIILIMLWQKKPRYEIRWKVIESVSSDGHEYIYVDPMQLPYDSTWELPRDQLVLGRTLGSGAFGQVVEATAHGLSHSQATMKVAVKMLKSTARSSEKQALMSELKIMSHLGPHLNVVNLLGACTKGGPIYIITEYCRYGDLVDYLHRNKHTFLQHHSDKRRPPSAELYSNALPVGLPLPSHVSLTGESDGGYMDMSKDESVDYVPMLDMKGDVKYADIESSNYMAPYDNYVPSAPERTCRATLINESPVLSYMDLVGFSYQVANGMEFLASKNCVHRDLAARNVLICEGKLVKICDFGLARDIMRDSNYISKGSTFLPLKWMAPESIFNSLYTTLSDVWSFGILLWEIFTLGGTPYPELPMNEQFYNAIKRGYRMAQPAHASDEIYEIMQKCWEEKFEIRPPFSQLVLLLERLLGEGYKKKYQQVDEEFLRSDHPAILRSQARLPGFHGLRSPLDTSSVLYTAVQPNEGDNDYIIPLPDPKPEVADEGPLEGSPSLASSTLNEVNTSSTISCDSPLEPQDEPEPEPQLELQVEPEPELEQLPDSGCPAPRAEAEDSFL
human αPDGFR, sequence (P16234 24-589 limits assumed): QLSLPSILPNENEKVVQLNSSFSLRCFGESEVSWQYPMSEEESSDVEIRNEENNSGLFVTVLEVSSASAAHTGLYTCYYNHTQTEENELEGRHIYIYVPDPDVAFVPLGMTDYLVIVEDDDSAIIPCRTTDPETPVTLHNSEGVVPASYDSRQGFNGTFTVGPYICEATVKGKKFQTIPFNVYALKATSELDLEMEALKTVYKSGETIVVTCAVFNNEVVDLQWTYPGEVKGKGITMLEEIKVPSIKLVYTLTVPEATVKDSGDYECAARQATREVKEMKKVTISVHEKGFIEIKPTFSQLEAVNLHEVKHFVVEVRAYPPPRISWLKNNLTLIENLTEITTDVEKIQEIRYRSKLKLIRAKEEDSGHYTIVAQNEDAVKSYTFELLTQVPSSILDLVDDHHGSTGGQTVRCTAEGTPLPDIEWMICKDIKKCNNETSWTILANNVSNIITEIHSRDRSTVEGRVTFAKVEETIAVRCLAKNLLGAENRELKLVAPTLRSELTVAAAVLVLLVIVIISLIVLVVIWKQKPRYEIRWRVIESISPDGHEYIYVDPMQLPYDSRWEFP

| Substance | PDGF-dependent activation of Erk (Erk) | basal or PDGF-stimulated tyrosine phosphorylation of the mutant receptor (human αPDGFR) | kinase activity towards exogenous substrate GST-PLCγ (GST-PLCγ) | TGFβ-induced contraction (FCX^2, Fα and Fβ cells) | tyrosine phosphorylation of the αPDGFR (αPDGFR) | tyrosine phosphorylation of the βPDGFR (βPDGFR) | [3H]-thymidine incorporation in response to serum (NIH 3T3 cells) |
| --- | --- | --- | --- | --- | --- | --- | --- |
| D818N: human αPDGFR point mutant, aspartic acid at position 818 changed to asparagine; SEQ ID NO: 8 | failed to fully activated Erk | no detectable | not phosphorylated |  |  |  |  |
| TGFβ: recombinant human TGFβ1 purchased from R & D systems |  |  |  | induced contraction of the Fα cells to a much greater extent than either the Fβ cells or the cells that do not express any PDGFR | increased phosphorylation of the αPDGFR | very modest or undetectable tyrosine phosphorylation |  |
| V859M: human αPDGFR point mutant, valine at position 859 changed to methionine; SEQ ID NO: 10 |  |  | more active than the WT receptor |  |  |  | somewhat elevated response to serum |

— US6667173B2, “Nucleic acids encoding platelet derived growth factor-alpha receptors” (The Schepens Eye Research Institute, priority 2000, dated 2003)
